Assay results from patent publication US20060148885A1, “Medicinal composition” (Kyowa Hakko Kogyo Co., Ltd., priority 2003, published 2006).
Where a name gives a salt, the structure may show the parent alone.

Tested on: rats with bladder hypertrophy
Experiment: Inhibitory activity on detrusor overactivity: cystometry in rats with partial urethral obstruction
Type: in vivo, SD rats
Conditions: p.o., Compound (Ia) 0.01 mg/kg, tamsulosin 0.03 mg/kg; for amplitude of premicturition contractions (relative value, before administration = 100) / frequency of premicturition contractions (relative value, before administration = 100) / amplitude of micturition contractions (relative value, before administration = 100): average ± standard error; for amplitude of premicturition contractions (relative value, before administration = 100) / frequency of premicturition contractions (relative value, before administration = 100): n = 9-10; for amplitude of micturition contractions (relative value, before administration = 100): index of voiding function; for effect on micturition contractions (voiding function), in words / effect on premicturition contractions (amplitude and frequency), in words: summary of Test Example
Description: The experiment was carried out according to the method by Malmgren, et al. [J. Urol., Vol. 142, pp. 1134-1138 (1989)]. Female SD rats of 8 to 9 weeks of age (supplied by Charles River Japan) were used in the test. Five to seven animals of these rats were housed in metal cages and given commercially available chow and water ad libtum, in an animal room maintained at room temperature from 19° C. to 25° C. and humidity from 30% to 70% under illumination for 12 hours (7:00 a.m.-7:00 p.m.) per day. The rats were subjected to operation of partial urethral obstruction. Each animal was anesthetized by intraperitoneal administration of 50 mg/kg pentobarbital sodium (Tokyo Kasei), and the midline incision of the skin and muscle was made in the lower abdomen. A polyethylene tube (PE-20, Becton Dickinson) was inserted into urethra from the urethral orifice to the bladder neck. After the proximal urethra was separated from connective tissues and ligated using double suture, the polyethylene tube was removed to induce partial urethral obstruction. The incised part was sutured with a surgical silk thread. An antibiotic ampicillin (Sigma) was intramusclarly injected (150 mg/kg, once a day, for 3 days). Six weeks after the operation of the partial urethral obstruction, the rats with bladder hypertrophy were subjected to intravesical implantation of catheter. Under anesthesia with pentobarbital sodium, the bladder was exposed by an abdominal midline incision. A polyethylene tube (PE-50, Becton Dickinson), one end of which was blunted not to damage the bladder tissue, was filled with a physiological saline (Otsuka Pharmaceutical Factory) and inserted into the bladder via the bladder apex. The intravesical catheter was fixed with a surgical silk suture. The other end of the catheter was tunneled subcutaneously, drawn out from the dorsal neck, plugged and then fixed to the skin with a suture. Four to seven days after the surgery for implantation of intravesical catheter, a cystometry test was performed. The rats were housed in a Bollman cage (Natsume Seisakusho) and a three-way stopcock was connected to the intravesical catheter, one end of the stopcock was connected to a pressure transducer (Nihon Kohden) and the other end was connected to a 50-mL syringe (Terumo) set in an infusion pump (KD Scientific) for physiological saline infusion. The intravesical pressure was measured with a polygraph system (RMP-6008, Nihon Kohden) via a pressure transducer and a strain pressure amplifier (AP-621G, Nihon Kohden), and recorded on a thermal array recorder (RTA-1200, Nihon Kohden). Sixty to 90 minutes after the completion of the preparation for the measurement, a room temperature physiological saline was continuously infused into the urinary bladder for 30 minutes at a flow rate of 10 mL/h to confirm the occurrence of micturition contractions and premicturition contractions (detrusor overactivity). Thirty minutes after the cessation of the first saline infusion, the saline was again infused intravesically for 30 minutes, and this period is for determination of the data before drug administration. Compound (Ia) was suspended in a 0.5 w/v (weight/volume) % methyl cellulose solution at a concentration of 1 mg/ml. The suspension was further diluted with a 0.5 w/v % methyl cellulose solution to prepare solution for administration [solution for Compound (Ia) administration] at a concentration of 0.01 mg/ml. The solution was orally administered to the rats at a volume of 1 ml/kg. Tamsulosin hydrochloride was dissolved in a 0.5 w/v % methyl cellulose solution at a concentration of 0.03 mg/ml (solution for tamsulosin administration), and the solution was orally administered to the rats at a volume of 1 ml/kg. For investigating the effect of the combined administration, Compound (Ia) solution and the tamsulosin solution were simultaneously and orally administered to the rats, both at a volume of 1 ml/kg each. […]

Row | SMILES | amplitude of premicturition contractions (relative value, before administration = 100) (After 1 hour) [%] | frequency of premicturition contractions (relative value, before administration = 100) (After 1 hour) [%] | amplitude of micturition contractions (relative value, before administration = 100) (After 1 hour) [%] | amplitude of premicturition contractions (relative value, before administration = 100) (After 3 hours) [%] | frequency of premicturition contractions (relative value, before administration = 100) (After 3 hours) [%] | amplitude of micturition contractions (relative value, before administration = 100) (After 3 hours) [%] | amplitude of premicturition contractions (relative value, before administration = 100) (After 5 hours) [%] | frequency of premicturition contractions (relative value, before administration = 100) (After 5 hours) [%] | amplitude of micturition contractions (relative value, before administration = 100) (After 5 hours) [%] | effect on micturition contractions (voiding function), in words | effect on premicturition contractions (amplitude and frequency), in words
1 | C[C@](O)(C(=O)Nc1cccc2c1C(=O)c1sccc1CS2(=O)=O)C(F)(F)F [Compound (Ia), (S)-(+)-3,3,3-trifluoro-2-hydroxy-2-methyl-N-(5,5,10-trioxo-4,10-dihydrothieno[3,2-c][1]benzothiepin-9-yl)propanamide] | 62.3 ± 7.7 | 52.3 ± 7.3 | 109.5 ± 2.2 | 62.8 ± 7.6 | 46.2 ± 8.1 | 105.5 ± 3.8 | 65.6 ± 7.5 | 42.4 ± 6.0 | 96.7 ± 2.4 | did not affect micturition contractions | inhibited premicturition contractions
2 | CCOc1ccccc1OCCN[C@H](C)Cc1ccc(OC)c(S(N)(=O)=O)c1 [Tamsulosin, Tamsulosin hydrochloride] | 62.0 ± 5.2 | 57.8 ± 7.5 | 108.5 ± 6.4 | 75.2 ± 5.5 | 73.2 ± 5.3 | 108.1 ± 6.0 | 88.3 ± 7.2 | 78.4 ± 7.0 | 104.7 ± 6.4 | did not affect micturition contractions | inhibited premicturition contractions
